# In article PMC9090415, “Discovery of small molecule inhibitors of Plasmodium falciparum apicoplast DNA polymerase” (Journal of Enzyme Inhibition and Medicinal Chemistry, 2022):
# Molecular target: P. falciparum apicoplast DNA polymerase (Pf-apPOL) (Plasmodium falciparum, UniProt Q8ILY1)
# Experiment: Fluorescence-based high-throughput DNA polymerase assay (molecular beacon), primary screen and dose-response
# Assay type: biochemical
# Conditions: for DNA Pol: 90 min, 10 µM
# Protocol: The HT assay employs a molecular beacon, a stem-loop DNA template with a Cy3 dye and the Black Hole Quencher on the 3′ and 5′ ends of the DNA, respectively. Pf-apPOL concentration is based on a calculated absorptivity of ε280 = 56750 M^−1 cm^−1. Reactions were carried out at 25 °C, using Corning 3575 […] (well-volume, 20 µL). Assays testing for compound inhibition composed of reaction buffer (pH 7.9 in 50 mM potassium acetate, 20 mM Tris-acetate and 10 mM magnesium acetate), Pf-apPOL (20 nM), DNA substrate (20 nM), dNTPs (6 µM), and compound (10 µM in DMSO). The DNA and nucleotide substrates (dNTPs) were at concentrations of 20 nM and 6 µM, respectively, in the assay. Pf-apPOL was incubated in the reaction buffer with dNTPs and the compound of interest (10 µM, in the assay) at 25 °C for 10 min. The DNA substrate was then added and the reaction was allowed to proceed for 90 min at 25 °C.
# Each assay plate contained 16 negative controls (no Pf-apPOL, DMSO present) and 16 positive controls (Pf-apPOL present, no DMSO). The fluorescence of each well was determined using a BioTek Synergy Neo fluorescence plate reader using excitation and emission wavelengths of 555 and 570 nm, respectively.
# In the above, Min is the average of fluorescence emission of the negative controls (substrate only), Max the average fluorescence emission from the positive controls (enzyme + substrate), and Test the emission from the assays in the presence of compounds (enzyme + compound + substrates). […] […] The IC50 of each compound was determined using Equation (2): (2) IC50= Vmax/(1+ (I/IC50)^n)
# In the above, n measures cooperativity, with n > 1 indicating synergistic binding of more than a single molecule of the compound.
# To identify apPOL inhibitors we utilised our previously developed high-throughput DNA polymerase assay. The HT assay is based on a molecular beacon DNA template that forms a stem-loop with a Cy3 dye and the Black Hole Quencher on the 3′ and 5′ ends of the DNA, respectively. DNA polymerase activity extends an annealed primer through the stem region, displacing the fluorophore from the quencher, thereby increasing its fluorescence (Figure 1(A)). The assay accurately recapitulates the kinetic behaviour of apPOL, as measured through more conventional low-throughput gel-based assays. The Z′ factor for the assay described here was 0.9 across all plates (data not shown).
# Figure 1. High-throughput screening. (A) The fluorescent-based DNA polymerase assay used to screen the compound libraries. The DNA template strand is a hairpin loop with a primer annealed to the loop. The 3’ end of the primer is 11 bases away from the 6 bp duplex. Strand displacement activity of the DNA polymerase separates the Cy3 dye from the Black hole quencher leading to an increase in fluorescent signal. (B) The high-throughput assay workflow. The DNA polymerase is incubated with […] compound for 10 min prior to addition of the hairpin substrate. The reaction is quenched at 3 different time points and the fluorescent signal is measured and % inhibition is determined using the provided equation.
# [1] = primary screen value of the 186 hits, unit not given
# P. falciparum apicoplast DNA polymerase (Pf-apPOL), sequence (Q8ILY1 entry or part of it): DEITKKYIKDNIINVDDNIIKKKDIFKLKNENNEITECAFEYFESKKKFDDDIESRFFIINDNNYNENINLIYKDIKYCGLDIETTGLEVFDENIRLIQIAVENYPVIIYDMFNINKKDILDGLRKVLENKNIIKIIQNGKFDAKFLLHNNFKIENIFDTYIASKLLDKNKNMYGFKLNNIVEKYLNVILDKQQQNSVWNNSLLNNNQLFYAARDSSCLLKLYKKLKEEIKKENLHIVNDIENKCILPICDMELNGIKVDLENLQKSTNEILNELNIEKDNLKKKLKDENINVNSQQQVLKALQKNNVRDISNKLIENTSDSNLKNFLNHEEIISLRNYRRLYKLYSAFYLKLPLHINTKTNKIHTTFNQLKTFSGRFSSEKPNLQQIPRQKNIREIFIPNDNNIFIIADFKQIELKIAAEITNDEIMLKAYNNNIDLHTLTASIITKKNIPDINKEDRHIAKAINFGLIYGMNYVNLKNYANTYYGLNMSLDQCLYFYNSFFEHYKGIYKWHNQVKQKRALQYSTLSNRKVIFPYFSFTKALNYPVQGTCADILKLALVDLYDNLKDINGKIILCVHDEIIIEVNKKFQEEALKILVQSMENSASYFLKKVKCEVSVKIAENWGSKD
smiles,measurement,setting,value
O=C(Nc1cccc(Cl)c1)Nc1nnc(-c2ccncc2)s1 [KU0022348],% inhibition Apo pol 10',"DRC-1, concentration 2.5",12.66%
same,% inhibition Apo pol 10',"DRC-1, concentration 5",-6.2957%
same,% inhibition Apo pol 10',"DRC-1, concentration 10",19.819%
same,% inhibition Apo pol 10',"DRC-1, concentration 20",75.3838%
same,% inhibition Apo pol 10',"DRC-1, concentration 40",88.0392%
same,% inhibition Apo pol 10',"DRC-1, concentration 80",86.8157%
same,% inhibition Apol 90',"DRC-1, 90', concentration 2.5",6.139%
same,% inhibition Apol 90',"DRC-1, 90', concentration 5",-8.679%
same,% inhibition Apol 90',"DRC-1, 90', concentration 10",12.9186%
same,% inhibition Apol 90',"DRC-1, 90', concentration 20",70.4338%
same,% inhibition Apol 90',"DRC-1, 90', concentration 40",84.2961%
same,% inhibition Apol 90',"DRC-1, 90', concentration 80",86.1912%
same,% inhibition apPOL 180',"DRC-1, concentration 2.5",0.3318%
same,% inhibition apPOL 180',"DRC-1, concentration 5",-11.6465%
same,% inhibition apPOL 180',"DRC-1, concentration 10",5.454%
same,% inhibition apPOL 180',"DRC-1, concentration 20",60.8254%
same,% inhibition apPOL 180',"DRC-1, concentration 40",80.4807%
same,% inhibition apPOL 180',"DRC-1, concentration 80",84.4697%
same,% inhibition Apo pol 5',"DRC-2, 5', concentration 2.5",16%
same,% inhibition Apo pol 5',"DRC-2, 5', concentration 5",32%
same,% inhibition Apo pol 5',"DRC-2, 5', concentration 10",46%
same,% inhibition Apo pol 5',"DRC-2, 5', concentration 20",47%
same,% inhibition Apo pol 5',"DRC-2, 5', concentration 40",48%
same,% inhibition Apo pol 5',"DRC-2, 5', concentration 80",40%
same,% inhibition Apol 40',"DRC-2, 40', concentration 2.5",18%
same,% inhibition Apol 40',"DRC-2, 40', concentration 5",42%
same,% inhibition Apol 40',"DRC-2, 40', concentration 10",64%
same,% inhibition Apol 40',"DRC-2, 40', concentration 20",66%
same,% inhibition Apol 40',"DRC-2, 40', concentration 40",71%
same,% inhibition Apol 40',"DRC-2, 40', concentration 80",57%
same,% inhibition ApPOL 90',"DRC-2, 90', concentration 2.5",16%
same,% inhibition ApPOL 90',"DRC-2, 90', concentration 5",41%
same,% inhibition ApPOL 90',"DRC-2, 90', concentration 10",65%
same,% inhibition ApPOL 90',"DRC-2, 90', concentration 20",67%
same,% inhibition ApPOL 90',"DRC-2, 90', concentration 40",73%
same,% inhibition ApPOL 90',"DRC-2, 90', concentration 80",64%
same,% inhibition apPOL 180',"DRC-2, concentration 2.5",6%
same,% inhibition apPOL 180',"DRC-2, concentration 5",30%
same,% inhibition apPOL 180',"DRC-2, concentration 10",58%
same,% inhibition apPOL 180',"DRC-2, concentration 20",60%
same,% inhibition apPOL 180',"DRC-2, concentration 40",70%
same,% inhibition apPOL 180',"DRC-2, concentration 80",65%
same,% inhibition Apo pol 5',"conc. 2.5, 5', DRC-2",16%
same,% inhibition ApPOL 90',"conc. 2.5, 90', DRC-2",16%
same,% inhibition Apol 40',"conc. 10, 40', DRC-2",64%
same,% inhibition ApPOL 90',"conc. 10, 90', DRC-2",65%
same,% inhibition ApPOL 90',"conc. 80, 90', DRC-2",64%
same,% inhibition apPOL 180',"conc. 80, DRC-2",65%
same,DNA Pol,primary screen value by plate and well,61
same,DNA Pol,[1],61
NS(=O)(=O)c1ccc(NC(=O)c2ccc(N3C(=O)CCC3=O)cc2)cc1 [KU0025331],% inhibition Apo pol 10',"DRC-1, concentration 2.5",3.929%
same,% inhibition Apo pol 10',"DRC-1, concentration 5",17.6449%
same,% inhibition Apo pol 10',"DRC-1, concentration 10",35.7836%
same,% inhibition Apo pol 10',"DRC-1, concentration 20",51.7902%
same,% inhibition Apo pol 10',"DRC-1, concentration 40",82.955%
same,% inhibition Apo pol 10',"DRC-1, concentration 80",86.1018%
same,% inhibition Apol 90',"DRC-1, 90', concentration 2.5",-2.372%
same,% inhibition Apol 90',"DRC-1, 90', concentration 5",7.062%
same,% inhibition Apol 90',"DRC-1, 90', concentration 10",19.6888%
same,% inhibition Apol 90',"DRC-1, 90', concentration 20",33.4355%
same,% inhibition Apol 90',"DRC-1, 90', concentration 40",69.7509%
same,% inhibition Apol 90',"DRC-1, 90', concentration 80",83.6402%
same,% inhibition apPOL 180',"DRC-1, concentration 2.5",-7.42%
same,% inhibition apPOL 180',"DRC-1, concentration 5",-1.0806%
same,% inhibition apPOL 180',"DRC-1, concentration 10",6.657%
same,% inhibition apPOL 180',"DRC-1, concentration 20",15.4098%
same,% inhibition apPOL 180',"DRC-1, concentration 40",52.8887%
same,% inhibition apPOL 180',"DRC-1, concentration 80",79.9389%
same,% inhibition Apo pol 5',"DRC-2, 5', concentration 2.5 (unit not given)",8%
same,% inhibition Apol 40',"DRC-2, 40', concentration 2.5 (unit not given)",8%
same,% inhibition Apol 40',"DRC-2, 40', concentration 40 (unit not given)",67%
same,% inhibition ApPOL 90',"DRC-2, 90', concentration 80 (unit not given)",67%
same,% inhibition Apo pol 5',"DRC-2, 5', concentration 2.5",8%
same,% inhibition Apo pol 5',"DRC-2, 5', concentration 5",15%
same,% inhibition Apo pol 5',"DRC-2, 5', concentration 10",23%
same,% inhibition Apo pol 5',"DRC-2, 5', concentration 20",40%
same,% inhibition Apo pol 5',"DRC-2, 5', concentration 40",46%
same,% inhibition Apo pol 5',"DRC-2, 5', concentration 80",37%
same,% inhibition Apol 40',"DRC-2, 40', concentration 2.5",8%
same,% inhibition Apol 40',"DRC-2, 40', concentration 5",13%
same,% inhibition Apol 40',"DRC-2, 40', concentration 10",21%
same,% inhibition Apol 40',"DRC-2, 40', concentration 20",47%
same,% inhibition Apol 40',"DRC-2, 40', concentration 40",67%
same,% inhibition Apol 40',"DRC-2, 40', concentration 80",64%
same,% inhibition ApPOL 90',"DRC-2, 90', concentration 2.5",5.53%
same,% inhibition ApPOL 90',"DRC-2, 90', concentration 5",9%
same,% inhibition ApPOL 90',"DRC-2, 90', concentration 10",17%
same,% inhibition ApPOL 90',"DRC-2, 90', concentration 20",42%
same,% inhibition ApPOL 90',"DRC-2, 90', concentration 40",68%
same,% inhibition ApPOL 90',"DRC-2, 90', concentration 80",67%
same,% inhibition apPOL 180',"DRC-2, concentration 2.5",-4.26%
same,% inhibition apPOL 180',"DRC-2, concentration 5",-1.74%
same,% inhibition apPOL 180',"DRC-2, concentration 10",4.49%
same,% inhibition apPOL 180',"DRC-2, concentration 20",26%
same,% inhibition apPOL 180',"DRC-2, concentration 40",65%
same,% inhibition apPOL 180',"DRC-2, concentration 80",72%
same,DNA Pol,[1],32
same,DNA Pol,"primary screen value, head ""DNA Pol"", unit not given",32
